{"source": "ChEMBL document CHEMBL5465560", "about": "“Selectivity Literature for EUbOPEN Chemogenomic Library” (2024)", "key": {"[1]": {"target": "T1, Tyrosine-protein kinase ZAP-70 (Homo sapiens) (UniProt P43403)", "T1 sequence (whole entry)": "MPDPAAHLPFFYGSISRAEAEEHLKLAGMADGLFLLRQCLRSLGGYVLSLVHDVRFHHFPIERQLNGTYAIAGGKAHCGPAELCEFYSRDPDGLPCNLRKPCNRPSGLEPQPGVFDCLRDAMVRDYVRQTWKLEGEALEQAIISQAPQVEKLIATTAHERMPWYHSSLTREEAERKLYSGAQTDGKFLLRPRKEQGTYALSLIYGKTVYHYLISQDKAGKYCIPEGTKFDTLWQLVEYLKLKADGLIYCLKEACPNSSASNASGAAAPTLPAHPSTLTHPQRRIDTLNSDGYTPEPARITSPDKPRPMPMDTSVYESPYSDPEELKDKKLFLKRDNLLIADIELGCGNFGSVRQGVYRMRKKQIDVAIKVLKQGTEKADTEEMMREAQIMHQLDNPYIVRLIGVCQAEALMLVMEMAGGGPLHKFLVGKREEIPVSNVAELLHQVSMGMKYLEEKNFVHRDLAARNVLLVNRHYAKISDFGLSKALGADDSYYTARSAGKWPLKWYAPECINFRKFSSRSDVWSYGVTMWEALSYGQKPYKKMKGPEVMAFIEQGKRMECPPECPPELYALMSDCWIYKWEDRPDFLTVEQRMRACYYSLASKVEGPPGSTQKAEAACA", "conditions": "at 10 µM"}, "[2]": {"target": "T2, Non-receptor tyrosine-protein kinase TNK1 (Homo sapiens) (UniProt Q13470)", "T2 sequence (whole entry)": "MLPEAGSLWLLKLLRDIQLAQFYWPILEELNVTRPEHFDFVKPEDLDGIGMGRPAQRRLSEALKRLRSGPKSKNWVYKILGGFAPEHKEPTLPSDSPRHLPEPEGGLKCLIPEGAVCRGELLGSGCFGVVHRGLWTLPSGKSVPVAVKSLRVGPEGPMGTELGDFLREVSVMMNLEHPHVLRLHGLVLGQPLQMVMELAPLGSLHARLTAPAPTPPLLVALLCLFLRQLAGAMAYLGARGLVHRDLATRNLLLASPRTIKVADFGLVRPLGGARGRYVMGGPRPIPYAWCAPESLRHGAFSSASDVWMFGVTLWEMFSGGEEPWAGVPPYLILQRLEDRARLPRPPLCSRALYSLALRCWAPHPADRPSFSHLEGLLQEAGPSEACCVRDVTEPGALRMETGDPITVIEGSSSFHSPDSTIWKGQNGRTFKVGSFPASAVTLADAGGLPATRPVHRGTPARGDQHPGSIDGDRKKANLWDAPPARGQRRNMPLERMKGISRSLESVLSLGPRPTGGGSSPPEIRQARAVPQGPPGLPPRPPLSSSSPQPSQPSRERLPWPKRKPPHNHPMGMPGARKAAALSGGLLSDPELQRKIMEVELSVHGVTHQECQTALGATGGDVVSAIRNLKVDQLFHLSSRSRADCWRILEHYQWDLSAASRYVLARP", "conditions": "at 10 µM"}, "[3]": {"target": "T3, Mitogen-activated protein kinase kinase kinase 5 (Homo sapiens) (UniProt Q99683)", "T3 sequence (whole entry)": "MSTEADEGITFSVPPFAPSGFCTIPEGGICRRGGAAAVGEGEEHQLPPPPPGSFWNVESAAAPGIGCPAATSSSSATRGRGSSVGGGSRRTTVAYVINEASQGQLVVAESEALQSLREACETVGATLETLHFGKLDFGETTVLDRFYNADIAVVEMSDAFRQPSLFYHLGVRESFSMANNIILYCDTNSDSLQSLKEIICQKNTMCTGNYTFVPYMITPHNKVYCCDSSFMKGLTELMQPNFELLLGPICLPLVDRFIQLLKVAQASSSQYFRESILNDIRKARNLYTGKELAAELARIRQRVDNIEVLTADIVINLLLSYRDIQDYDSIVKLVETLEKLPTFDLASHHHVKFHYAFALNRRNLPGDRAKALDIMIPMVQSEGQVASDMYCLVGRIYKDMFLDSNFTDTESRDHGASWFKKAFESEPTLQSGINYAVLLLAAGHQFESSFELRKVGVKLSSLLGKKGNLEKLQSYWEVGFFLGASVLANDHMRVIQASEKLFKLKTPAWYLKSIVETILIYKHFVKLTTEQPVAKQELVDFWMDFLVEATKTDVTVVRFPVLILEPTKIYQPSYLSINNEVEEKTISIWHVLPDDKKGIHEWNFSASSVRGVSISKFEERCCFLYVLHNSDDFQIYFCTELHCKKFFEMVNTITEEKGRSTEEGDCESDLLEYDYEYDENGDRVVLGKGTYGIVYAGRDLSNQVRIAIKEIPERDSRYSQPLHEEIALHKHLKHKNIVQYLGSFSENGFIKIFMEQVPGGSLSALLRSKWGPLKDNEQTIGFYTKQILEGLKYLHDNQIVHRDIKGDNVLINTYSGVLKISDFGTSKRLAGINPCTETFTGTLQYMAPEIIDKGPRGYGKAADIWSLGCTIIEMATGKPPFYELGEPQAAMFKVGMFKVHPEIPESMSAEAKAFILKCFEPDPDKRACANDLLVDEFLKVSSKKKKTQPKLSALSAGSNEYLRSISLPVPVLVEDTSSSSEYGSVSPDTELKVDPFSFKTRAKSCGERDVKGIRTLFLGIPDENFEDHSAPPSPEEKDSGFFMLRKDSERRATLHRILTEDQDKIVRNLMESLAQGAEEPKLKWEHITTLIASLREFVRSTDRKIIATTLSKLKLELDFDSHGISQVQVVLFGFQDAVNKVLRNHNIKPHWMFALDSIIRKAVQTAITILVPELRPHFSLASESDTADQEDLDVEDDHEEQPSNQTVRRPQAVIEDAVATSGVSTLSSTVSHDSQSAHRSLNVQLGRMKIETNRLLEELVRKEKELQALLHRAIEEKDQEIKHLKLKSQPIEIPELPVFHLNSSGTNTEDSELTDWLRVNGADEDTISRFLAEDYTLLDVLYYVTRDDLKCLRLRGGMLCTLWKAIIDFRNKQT", "experiment": "Selectivity interaction (KinomeScan (DiscoverX)) EUB0000092b MAP3K5", "conditions": "at 10 µM"}, "[4]": {"target": "Mitogen-activated protein kinase 11 (Homo sapiens) (UniProt Q15759)", "sequence (Q15759 whole entry)": "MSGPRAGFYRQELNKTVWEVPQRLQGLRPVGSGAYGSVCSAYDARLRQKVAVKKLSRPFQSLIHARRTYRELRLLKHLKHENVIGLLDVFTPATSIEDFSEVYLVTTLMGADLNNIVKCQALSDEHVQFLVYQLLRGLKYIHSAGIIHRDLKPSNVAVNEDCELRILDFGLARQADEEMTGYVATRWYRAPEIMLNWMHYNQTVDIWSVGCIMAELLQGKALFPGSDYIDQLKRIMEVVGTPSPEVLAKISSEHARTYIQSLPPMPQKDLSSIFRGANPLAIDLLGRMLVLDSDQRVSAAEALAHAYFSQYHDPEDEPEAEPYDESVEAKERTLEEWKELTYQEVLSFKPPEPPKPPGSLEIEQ", "experiment": "Selectivity interaction (Kinase panel (Invitrogen)) EUB0000639a MAPK11", "conditions": "at 200 nM"}, "[5]": {"target": "Casein kinase I isoform alpha (Homo sapiens, UniProt P48729)", "sequence (P48729 2-337 limits assumed)": "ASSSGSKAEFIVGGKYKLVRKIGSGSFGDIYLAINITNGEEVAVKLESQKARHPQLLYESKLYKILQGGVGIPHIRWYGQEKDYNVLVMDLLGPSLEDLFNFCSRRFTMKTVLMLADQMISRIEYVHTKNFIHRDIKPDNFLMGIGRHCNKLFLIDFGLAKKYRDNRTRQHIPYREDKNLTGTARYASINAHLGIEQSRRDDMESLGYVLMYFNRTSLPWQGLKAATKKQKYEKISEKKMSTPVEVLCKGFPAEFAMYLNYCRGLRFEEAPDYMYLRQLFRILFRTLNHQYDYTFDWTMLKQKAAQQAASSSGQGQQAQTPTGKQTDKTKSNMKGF", "experiment": "Selectivity interaction (KinomeScan (DiscoverX)) EUB0001049a CSNK1A1", "conditions": "at 1 µM"}, "[6]": {"target": "Mitogen-activated protein kinase kinase kinase kinase 5 (Homo sapiens) (UniProt Q9Y4K4)", "sequence (Q9Y4K4 whole entry, looked up)": "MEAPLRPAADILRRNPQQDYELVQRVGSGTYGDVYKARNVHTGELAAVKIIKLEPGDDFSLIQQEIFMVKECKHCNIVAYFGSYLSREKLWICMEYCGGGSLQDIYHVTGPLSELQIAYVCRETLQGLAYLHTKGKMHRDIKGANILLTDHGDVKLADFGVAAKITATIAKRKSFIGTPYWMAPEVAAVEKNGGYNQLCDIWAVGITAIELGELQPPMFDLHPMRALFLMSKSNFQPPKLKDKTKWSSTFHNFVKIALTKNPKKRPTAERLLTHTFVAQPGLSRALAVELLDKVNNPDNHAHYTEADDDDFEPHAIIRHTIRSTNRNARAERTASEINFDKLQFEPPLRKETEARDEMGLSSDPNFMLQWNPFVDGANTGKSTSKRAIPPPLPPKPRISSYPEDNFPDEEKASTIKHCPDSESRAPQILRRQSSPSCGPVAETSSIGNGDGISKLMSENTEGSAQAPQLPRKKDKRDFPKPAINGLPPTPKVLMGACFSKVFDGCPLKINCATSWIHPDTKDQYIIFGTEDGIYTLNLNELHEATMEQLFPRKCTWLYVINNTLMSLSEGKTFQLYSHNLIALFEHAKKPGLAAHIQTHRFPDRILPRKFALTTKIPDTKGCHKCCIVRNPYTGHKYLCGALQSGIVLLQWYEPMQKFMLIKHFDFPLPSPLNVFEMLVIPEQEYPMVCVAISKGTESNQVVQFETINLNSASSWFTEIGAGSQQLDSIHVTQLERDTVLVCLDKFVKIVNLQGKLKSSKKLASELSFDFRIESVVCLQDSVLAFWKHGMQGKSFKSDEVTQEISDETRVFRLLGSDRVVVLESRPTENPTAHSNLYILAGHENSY", "experiment": "Selectivity interaction (KinomeScan (DiscoverX)) EUB0001049a MAP4K5", "conditions": "at 1 µM"}, "[7]": {"target": "Casein kinase I isoform delta (Homo sapiens, UniProt P48730)", "sequence (P48730 whole entry, looked up, canonical isoform)": "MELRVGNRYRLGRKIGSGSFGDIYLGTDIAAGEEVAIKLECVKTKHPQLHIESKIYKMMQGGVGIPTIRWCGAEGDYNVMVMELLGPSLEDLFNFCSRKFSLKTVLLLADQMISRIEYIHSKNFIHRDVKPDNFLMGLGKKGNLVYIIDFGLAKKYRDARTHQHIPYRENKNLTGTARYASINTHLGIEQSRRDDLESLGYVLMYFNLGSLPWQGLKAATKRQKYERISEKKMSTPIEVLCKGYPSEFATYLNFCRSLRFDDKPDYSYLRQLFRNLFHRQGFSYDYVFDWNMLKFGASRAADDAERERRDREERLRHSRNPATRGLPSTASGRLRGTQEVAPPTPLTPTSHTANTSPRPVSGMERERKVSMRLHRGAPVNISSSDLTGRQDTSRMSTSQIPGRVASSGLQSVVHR", "experiment": "Selectivity interaction (KinomeScan (DiscoverX)) EUB0000595a CSNK1D", "conditions": "at 10 µM"}, "[8]": {"target": "Macrophage-stimulating protein receptor (Homo sapiens, UniProt Q04912)", "sequence (Q04912 25-304 limits assumed)": "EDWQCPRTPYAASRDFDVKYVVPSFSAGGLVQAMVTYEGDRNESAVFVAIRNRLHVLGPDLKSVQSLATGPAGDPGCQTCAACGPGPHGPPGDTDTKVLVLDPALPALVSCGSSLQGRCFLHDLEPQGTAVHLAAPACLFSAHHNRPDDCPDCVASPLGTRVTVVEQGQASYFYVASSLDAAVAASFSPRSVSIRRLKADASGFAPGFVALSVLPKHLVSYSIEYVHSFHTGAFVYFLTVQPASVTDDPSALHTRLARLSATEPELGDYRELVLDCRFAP", "sequence (Q04912 310-1400 limits assumed)": "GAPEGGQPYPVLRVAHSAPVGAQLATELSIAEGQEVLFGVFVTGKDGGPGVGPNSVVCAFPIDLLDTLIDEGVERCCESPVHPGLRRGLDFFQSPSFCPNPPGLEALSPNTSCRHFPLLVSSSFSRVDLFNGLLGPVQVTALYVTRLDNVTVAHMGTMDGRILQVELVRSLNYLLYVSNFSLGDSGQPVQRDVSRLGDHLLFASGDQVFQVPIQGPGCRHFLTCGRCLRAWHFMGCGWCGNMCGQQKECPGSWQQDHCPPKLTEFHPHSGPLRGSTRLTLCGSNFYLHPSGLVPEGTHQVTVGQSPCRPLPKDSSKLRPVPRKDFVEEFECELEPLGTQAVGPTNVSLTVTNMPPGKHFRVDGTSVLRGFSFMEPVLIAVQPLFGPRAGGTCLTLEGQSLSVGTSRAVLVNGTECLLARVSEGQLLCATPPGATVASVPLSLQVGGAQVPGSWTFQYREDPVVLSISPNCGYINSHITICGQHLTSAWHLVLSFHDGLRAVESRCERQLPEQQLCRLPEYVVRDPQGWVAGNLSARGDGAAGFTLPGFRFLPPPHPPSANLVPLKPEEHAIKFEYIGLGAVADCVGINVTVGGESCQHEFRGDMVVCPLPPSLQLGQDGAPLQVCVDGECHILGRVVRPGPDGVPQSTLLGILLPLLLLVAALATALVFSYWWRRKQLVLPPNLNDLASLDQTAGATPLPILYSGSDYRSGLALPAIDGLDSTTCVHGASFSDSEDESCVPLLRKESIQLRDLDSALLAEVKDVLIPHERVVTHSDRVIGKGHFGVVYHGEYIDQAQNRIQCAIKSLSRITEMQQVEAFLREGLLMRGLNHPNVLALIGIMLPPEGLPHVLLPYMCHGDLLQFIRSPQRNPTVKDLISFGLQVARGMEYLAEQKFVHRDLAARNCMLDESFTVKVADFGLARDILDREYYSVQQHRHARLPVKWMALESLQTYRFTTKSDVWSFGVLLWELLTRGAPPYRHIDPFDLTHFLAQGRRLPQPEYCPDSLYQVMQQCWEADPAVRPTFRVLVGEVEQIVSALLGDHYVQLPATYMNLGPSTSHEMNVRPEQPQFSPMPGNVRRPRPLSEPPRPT", "experiment": "Selectivity interaction (KinomeScan (DiscoverX)) EUB0001619a MST1R", "conditions": "at 1 µM"}}}
{"compound": "CCN(CC)CCCCNc1ncc2cc(-c3cc(OC)cc(OC)c3)c(NC(=O)NC(C)(C)C)nc2n1", "values": [{"measurement": "% of control", "setting": "[1]", "value": 100, "unit": "%"}, {"measurement": "% of control", "setting": "[2]", "value": 100, "unit": "%"}]}
{"compound": "CCC(=O)N1CCN(c2ccc(-n3c(=O)ccc4cnc5ccc(-c6cnc7ccccc7c6)cc5c43)cc2C(F)(F)F)CC1", "values": [{"measurement": "% of control", "setting": "[3]", "value": 100, "unit": "%"}]}
{"compound": "CC[C@@H]1[C@H](F)C(=O)N[C@@H]1COc1nccc2cc(C(N)=O)c(OC)cc12", "note": "[ZIMLOVISERTIB]", "values": [{"measurement": "% of inhibition", "setting": "[4]", "value": 5.62, "unit": "%"}]}
{"compound": "COc1cc(Nc2nc(C)cc(-c3cnn4nc(OC)ccc34)n2)cc(C(F)(F)F)c1", "values": [{"measurement": "% of control", "setting": "[5]", "value": 77, "unit": "%"}, {"measurement": "% of control", "setting": "[6]", "value": 94, "unit": "%"}]}
{"compound": "COCC(=O)NC/C=C/c1ccc2ncnc(Nc3ccc(Oc4ccc(C)nc4)c(C)c3)c2c1", "note": "[CP-724714]", "values": [{"measurement": "% of control", "setting": "[7]", "value": 90, "unit": "%"}]}
{"compound": "N#Cc1cccc(-c2c[nH]c3ncnc(N4CCOCC4)c23)c1", "values": [{"measurement": "% of control", "setting": "[8]", "value": 95, "unit": "%"}]}
